Data reported in PubChem BioAssay AID196 (DTP/NCI, 2004).
Several values for one entry are separate records, joined by “and”; a condition that tells them apart may be missing. Identical values can stand only once. Toxic doses and inconclusive results are not listed.

Test system: BDF1 mice, intracerebral B16 melanoma, median survival T/C
Assay: NCI In Vivo Anticancer Drug Screen. Data for tumor model B16 Melanoma (intracerebral) in B6D2F1 (BDF1) mice
Conditions: endpoint: median survival time, higher = longer survival
Protocol: The antitumor activity of compounds was measured in mice bearing transplantable tumors. Survival or tumor size were measured and the results are expressed as the measurement made in the treated group (T) divided by the measurement made in the vehicle treated control group (C). The tumor model used in this assay is B16 Melanoma (intracerebral) in B6D2F1 (BDF1) mice

Q: Which T/C (dose: 128.0 mg/kg/injection, schedule: Q01DX005 (ip), vehicle: Klucel (hydroxypropylcellulose) (HPC)) does the source give for `Cc1ncc(CO)c(C)c1O` here?
A: The T/C was 100 % of control and 109 % of control.

Q: What about the T/C (dose: 256.0 mg/kg/injection, schedule: Q01DX005 (ip), vehicle: Klucel (hydroxypropylcellulose) (HPC)) of the same compound?
A: Its T/C is 98 % of control and 105 % of control.

Q: `CCN(CC)c1ccc2cc3ccc(=[N+](CC)CC)cc-3oc2c1` was tested. Which T/C (dose: 4.0 mg/kg/injection, schedule: Q01DX005 (ip), vehicle: saline) did it give?
A: The T/C was 100 % of control.

Q: And the T/C (dose: 4.0 mg/kg/injection, schedule: Q01DX005 (ip), vehicle: suspension in saline)?
A: Its T/C is 93 % of control.

Q: And the T/C (dose: 8.0 mg/kg/injection, schedule: Q01DX005 (ip), vehicle: saline)?
A: Its T/C is 98 % of control.

Q: What about the T/C (dose: 8.0 mg/kg/injection, schedule: Q01DX005 (ip), vehicle: suspension in saline) of the same compound?
A: The T/C was 113 % of control.

Q: `CC(=O)OC1COC(NC(=O)N(CCCl)N=O)C(OC(C)=O)C1OC(C)=O` (stereo not given) was tested. Which T/C (dose: 0.18 mg/kg/injection, schedule: Q01DX009 (ip), vehicle: saline) did it give?
A: The T/C was 104 % of control.

Q: What about the T/C (dose: 0.37 mg/kg/injection, schedule: Q01DX009 (ip), vehicle: saline) of the same compound?
A: Its T/C is 104 % of control.

Q: And the T/C (dose: 0.75 mg/kg/injection, schedule: Q01DX009 (ip), vehicle: saline)?
A: The T/C was 113 % of control.

Q: What about the T/C (dose: 1.5 mg/kg/injection, schedule: Q01DX009 (ip), vehicle: saline) of the same compound?
A: The T/C was 113 % of control.

Q: Which T/C (dose: 32.0 mg/kg/injection, schedule: Q01DX005 (ip), vehicle: saline with Tween-80) does the source give for `CCCCN(C)N=Nc1c(C(N)=O)n[nH]c1C` here?
A: The T/C was 121 % of control.

Q: `CC[C@]1(O)C[C@H]2CN(CCc3c([nH]c4ccccc34)[C@@](C(=O)OC)(c3cc4c(cc3OC)N(C=O)[C@H]3[C@@](O)(C(=O)OC)[C@H](OC(C)=O)[C@]5(CC)C=CCN6CC[C@]43[C@@H]65)C2)C1` was tested. Which T/C (dose: 0.02 mg/kg/injection, schedule: Q01DX009 (ip), vehicle: saline) did it give?
A: Its T/C is 96 % of control.

Q: What about the T/C (dose: 0.03 mg/kg/injection, schedule: Q01DX009 (ip), vehicle: saline) of the same compound?
A: The T/C was 96 % of control.

Q: And the T/C (dose: 0.06 mg/kg/injection, schedule: Q01DX009 (ip), vehicle: saline)?
A: Its T/C is 92 % of control and 95 % of control.

Q: And the T/C (dose: 0.13 mg/kg/injection, schedule: Q01DX009 (ip), vehicle: saline)?
A: The T/C was 117 % of control and 108 % of control.

Q: And the T/C (dose: 0.26 mg/kg/injection, schedule: Q01DX009 (ip), vehicle: saline)?
A: The T/C was 100 % of control.

Q: `S=P(N1CC1)(N1CC1)N1CC1` was tested. Which T/C (dose: 1.0 mg/kg/injection, schedule: Q01DX009 (ip), vehicle: saline) did it give?
A: Its T/C is 108 % of control (2×) and 113 % of control.

Q: What about the T/C (dose: 2.0 mg/kg/injection, schedule: Q01DX009 (ip), vehicle: saline) of the same compound?
A: Its T/C is 100 % of control.

Q: And the T/C (dose: 4.0 mg/kg/injection, schedule: Q01DX009 (ip), vehicle: saline)?
A: Its T/C is 120 % of control and 122 % of control.

Q: What about the T/C (dose: 8.0 mg/kg/injection, schedule: Q01DX009 (ip), vehicle: saline) of the same compound?
A: The T/C was 172 % of control.
